# Test results: patent US20080214669A1, “Composition and Method For Treating Hyperpigmented Skin” (LIPO CHEMICALS INC., priority 2005, published 2008)
# Key:
# [1] = clinical study of skin brightening efficacy and skin redness (chromameter readings); format: in vivo, human; details: emulsion 0.3% by weight
# Procedure: The skin brightening efficacy of p-HCA in ethoxydyglycol versus kojic acid also was tested in a clinical study. In this study, an emulsion containing 0.3%, by weight, p-HCA or kojic acid was used on twenty, mostly female, subjects between the ages of 30 to 50 years. The test composition was applied to the abdomen twice daily (a.m. and p.m.). The test was conducted for eight weeks, and chromameter readings were taken at baseline, and after 2, 4, 6, and 8 weeks.
# skin enzymes = assay: metabolism of p-HCA in homogenized human skin; format: in vitro ADME; details: human skin homogenate in PBS-ethanol, 37° C., eight hours of incubation
# Procedure: First, to confirm in vivo activity of p-HCA, the metabolism of p-HCA in the skin was determined. In this test, human skin was homogenized in a PBS (phosphate-buffered saline)-ethanol solution, followed by dissolution of p-HCA. The solution was incubated at 37° C. for 8 hours. Samples were taken after 0, 4, and 8 hours, and were centrifuged. The supernatant was filtered and analyzed by HPLC. […] The amount of p-HCA that is metabolized was considered insignificant with respect to an efficacious treatment of hyperpigmentation.
# [2] = solubility of p-HCA in solvents / hydroxy-containing compounds (HPLC); format: physicochemical
# Procedure: Various solvents were tested for an ability to dissolve p-HCA and provide a suitable composition for topical application to efficaciously treat hyperpigmentation. p-HCA was added to various solvents, then sonicated for two hours at 35° C. until no further HCA was dissolved. The samples were cooled to room temperature (25° C.) and allowed to stabilize for 15 hours. The undissolved p-HCA was allowed to settle, the supernatant liquid was filtered, and diluted with the HPLC mobile phase for assay. All samples were analyzed by HPLC on a Hypersil ODS C18 column using water, methanol, glacial acetic acid (55:45:1) as the mobile phase. The flow rate was 1 ml/min and the wavelength for detection was 270 nm. […] p-Hydroxycinnamic acid was added to the hydroxy-containing compound and sonicated until no further p-HCA dissolved after two hours of sonication at 35° C. The test sample was cooled to room temperature, then stabilized for 15 hours. After the p-HCA was allowed to settle, the supernatant was filtered through a 0.2 micron syringe filter. Approximately 0.08 g of this filtered material was weighed into a 25 ml volumetric flask and diluted to volume with HPLC mobile phase. Two standards were analyzed by HPLC and compared to the two samples. The HPLC assay was identical to the HPLC assay discussed above.
# [3] = skin penetration, Franz diffusion cells; format: in vitro ADME, human
# Procedure: In another experiment, a 10% solution of p-HCA in ethoxydiglycol first was prepared. This solution was added to a skin care emulsion in a sufficient amount to provide either 0.3% or 0.1%, by weight, of p-HCA in the final composition. As a comparative example, 0.3%, by weight, of solid p-HCA was added to the same skin care emulsion. The skin care emulsion to which solid p-HCA or the p-HCA solution was added had the following formula (w/w %): • 85.35 water • 0.2 methylparaben • 0.35 xanthan gum • 5.0 butylene glycol • 4.0 sesame oil • 2.5 glyceryl stearate
# The skin care emulsions containing p-HCA were applied to cadaver skin. Skin penetration of p-HCA was studied using Franz diffusion cells, n=5 (Permegear, Bethlehem, Pa.). The receptor contained an isotonic phosphate buffer with 30% ethanol, and was stirred continuously at 600 rpm. Samples of dermatomed human cadaver skin (NDRA, Philadelphia) were placed on the cells and prehydrated for 1 hour prior to the experiment. One milliliter of each formulation was added to the donor compartment of each cell, which was covered tightly with PARAFILM®. Samples (300 μl) were withdrawn from the receptor compartment every hour over 8 hours, and replaced with 300 μl of fresh receptor solution. After 8 hours, the skin was removed and cut into small pieces. The skin pieces were homogenized using a Kinematica POLYTRON® homogenizer and centrifuged. The supernatant was filtered through 0.22μ filters, and the p-HCA content was quantified.
# All samples were analyzed by HPLC on a Hypersil ODS C18 column using water, methanol, glacial acetic acid (55:45:1) as the mobile phase at a flow rate of 1 ml/min and detection at 270 nm. Lag time and flux were obtained from permeation profiles and skin drug content also was recorded.
# The following formula was tested for skin penetration: • Water 28.1% (by wt); • Carbopol 981 (2%) 17.0%; • Ethanol SDA 40b-190 53.0%; • Glycerin 1.0%; • Triethanolamine 0.4%; • p-Hydroxycinnamic acid 0.5%.
# The method used to determine skin permeability was the Franz diffusion method disclosed above. […] In particular, 3.9 mcg/ml of p-HCA was found in the receptor compartment of the skin (i.e., permeated through the skin) as opposed to 16.3 mcg/ml p-HCA found within the skin.
# [4] = hydroethanolic Carbopol gel formula with 0.5% p-hydroxycinnamic acid
# [5] = in presence of ethoxydiglycol vs powder form
Structure (SMILES),skin redness ([1]; throughout the eight-week clinical trial),skin redness ([1]; weeks 4 and 8),p-HCA metabolized (skin enzymes) [%],solubility ([2]; 30% hydroethanolic solution) [wt %],solubility ([2]; Ethanol) [wt %],solubility ([2]; PEG-8) [wt %],solubility ([2]; butylene glycol) [wt %],solubility ([2]; glycereth-26) [wt %],solubility ([2]; pentylene glycol) [wt %],solubility ([2]; silicone fluid DC 193) [wt %],"amount deposited in the skin relative to amount transmitted through the skin [3, 4]","p-HCA found in the receptor compartment (permeated through the skin) [3, 4] [µg/mL]","elevation of percent p-HCA that permeates cadaver skin [3, 5] [%]","elevation of percentage of p-HCA that remained within the skin [3, 5]"
O=c1cc(CO)occ1O [kojic acid],did not reduce redness,induced redness,–,–,–,–,–,–,–,–,–,–,–,–
"O=C(O)C=Cc1ccc(O)cc1 [p-HCA, p-hydroxycinnamic acid]",–,–,3.6,0.75,14.8,5.4,2.25,7,1.75,4.7,four times greater,3.9,43,about 50%
